Test results taken from the NIST ThermoML archive (doi:10.1021/je500395f).

Conditions: Fluid (supercritical or subcritical phases), Coaxial cylinder method

CCC [propane]
Conditions	thermal conductivity [W/m/K]
373.2 K, 4574 kPa	0.0745
373.2 K, 4590 kPa	0.0724
373.2 K, 4605 kPa	0.07168
373.2 K, 4610 kPa	0.07119
373.2 K, 4640 kPa	0.06975
373.2 K, 4660 kPa	0.06887
373.2 K, 4680 kPa	0.06797
373.2 K, 4740 kPa	0.06707
373.2 K, 4900 kPa	0.06613
373.2 K, 5100 kPa	0.06615
373.2 K, 5540 kPa	0.06698
373.2 K, 6300 kPa	0.06878
373.2 K, 6700 kPa	0.06932
373.2 K, 7400 kPa	0.07086
373.2 K, 7780 kPa	0.07152
373.2 K, 8900 kPa	0.0735
373.2 K, 10500 kPa	0.0764
373.2 K, 11900 kPa	0.07818
374.28 K, 2900 kPa	0.03164
374.28 K, 3087 kPa	0.03271
374.28 K, 3424 kPa	0.03453
374.28 K, 3945 kPa	0.03887
374.28 K, 3975 kPa	0.03918
374.28 K, 4080 kPa	0.0412
374.28 K, 4200 kPa	0.04376
374.28 K, 4280 kPa	0.04558
374.28 K, 4320 kPa	0.04719
374.28 K, 4380 kPa	0.04961
374.28 K, 4425 kPa	0.05238
374.28 K, 4440 kPa	0.05378
374.28 K, 4450 kPa	0.05483
374.28 K, 4460 kPa	0.05626
374.28 K, 4475 kPa	0.05823
374.28 K, 4485 kPa	0.0596
374.28 K, 4510 kPa	0.06324
374.28 K, 4515 kPa	0.06424
374.28 K, 4518 kPa	0.06502
374.28 K, 4520 kPa	0.06551
374.28 K, 4535 kPa	0.06874
374.28 K, 4545 kPa	0.07123
374.28 K, 4550 kPa	0.07267
374.28 K, 4560 kPa	0.07525
374.28 K, 4565 kPa	0.07664
374.28 K, 4570 kPa	0.07786
374.28 K, 4575 kPa	0.07875
374.28 K, 4580 kPa	0.07954
374.28 K, 4585 kPa	0.08016
374.28 K, 4590 kPa	0.08076
374.28 K, 4595 kPa	0.08112
374.28 K, 4600 kPa	0.08148
374.28 K, 4605 kPa	0.0816
374.28 K, 4610 kPa	0.08117
374.28 K, 4615 kPa	0.08036
374.28 K, 4620 kPa	0.07961
374.28 K, 4625 kPa	0.07854
374.28 K, 4630 kPa	0.07755
374.28 K, 4640 kPa	0.07599
374.28 K, 4650 kPa	0.07477
374.28 K, 4670 kPa	0.07334
374.28 K, 4685 kPa	0.0724
374.28 K, 4710 kPa	0.07096
374.28 K, 4720 kPa	0.07026
374.28 K, 4740 kPa	0.06979
374.28 K, 4760 kPa	0.06909
374.28 K, 4780 kPa	0.06868
374.28 K, 4820 kPa	0.06778
374.28 K, 4900 kPa	0.06693
374.28 K, 5000 kPa	0.06603
374.28 K, 5200 kPa	0.06584
374.28 K, 5500 kPa	0.06645
374.28 K, 5798 kPa	0.06707
374.28 K, 6323 kPa	0.06829
374.28 K, 6760 kPa	0.06867
375.1 K, 3780 kPa	0.03695
375.1 K, 3790 kPa	0.03732
375.1 K, 3794 kPa	0.03755
375.1 K, 4210 kPa	0.04276
375.1 K, 4300 kPa	0.04526
375.1 K, 4315 kPa	0.04587
375.1 K, 4350 kPa	0.04739
375.1 K, 4400 kPa	0.04912
375.1 K, 4450 kPa	0.05149
375.1 K, 4510 kPa	0.05552
375.1 K, 4520 kPa	0.05654
375.1 K, 4525 kPa	0.0572
375.1 K, 4535 kPa	0.05845
375.1 K, 4545 kPa	0.05974
375.1 K, 4550 kPa	0.06052
375.1 K, 4555 kPa	0.06115
375.1 K, 4560 kPa	0.06195
375.1 K, 4565 kPa	0.06257
375.1 K, 4570 kPa	0.06325
375.1 K, 4575 kPa	0.06422
375.1 K, 4580 kPa	0.06509
375.1 K, 4585 kPa	0.06611
375.1 K, 4590 kPa	0.06706
375.1 K, 4595 kPa	0.06795
375.1 K, 4600 kPa	0.06877
375.1 K, 4605 kPa	0.06965
375.1 K, 4610 kPa	0.07049
375.1 K, 4620 kPa	0.07215
375.1 K, 4625 kPa	0.07291
375.1 K, 4630 kPa	0.07371
375.1 K, 4635 kPa	0.07453
375.1 K, 4640 kPa	0.07507
375.1 K, 4645 kPa	0.07542
375.1 K, 4650 kPa	0.07583
375.1 K, 4655 kPa	0.07611
375.1 K, 4660 kPa	0.07639
375.1 K, 4665 kPa	0.07653
375.1 K, 4670 kPa	0.07625
375.1 K, 4675 kPa	0.07597
375.1 K, 4680 kPa	0.07569
375.1 K, 4685 kPa	0.07544
375.1 K, 4695 kPa	0.07466
375.1 K, 4700 kPa	0.07412
375.1 K, 4710 kPa	0.07346
375.1 K, 4720 kPa	0.07261
375.1 K, 4740 kPa	0.07111
375.1 K, 4750 kPa	0.07062
375.1 K, 4770 kPa	0.06965
375.1 K, 4790 kPa	0.06852
375.1 K, 4800 kPa	0.06807
375.1 K, 4850 kPa	0.06676
375.1 K, 4890 kPa	0.06599
375.1 K, 4920 kPa	0.06554
